Data from patent EP2386565A2, “Compounds and methods to inhibit or augment an inflammatory response” (Cambridge Enterprise Ltd., priority 1999, dated 2000).
Where “and” joins values, the source holds several entries; their conditions need not be identical. Equal values may be shown once. Entries after “also recorded” stand apart in the source; their conditions may differ. Positions of bridges follow the written chain, without caps; N, C: chain ends. Non-standard residues stand in square brackets, D forms with d. Residues, ends and D or L forms follow the SMILES beside them.

What was measured:
[1] = target: T1, 5-HT1a serotonin receptors (Homo sapiens, UniProt P08908); assay: Competition of 3H-8-OH-DPAT binding to membranes; conditions: 100 µM highest concentration tested
T1 construct: purchased RBI/Sigma S-160; host or cells: membranes
Procedure: For SHT1a serotonin receptors, membranes (S-160, RBI/Sigma) are diluted into binding buffer (50 mM Tris pH 7.4 10 mM MgCl2 and 0.5 mM EDTA, with ascorbate at 1 mg/ml added immediately before use), e.g., 10 µl of membranes in 500 µl assay volume (i.e., 1:50 dilution). Cold competitor or test competitor is then added, e.g., 5 µl of 100x stock solution such as 5 µl of 1 mM oxymetazoline. Radioligand (^3H-8-OH-DPAT, TRK850, Amersham, 250 µCi in 250 µl; 4.5 µM at 222 Ci/mmol) is then added. For competition studies, ligand is employed (e.g., a 100x stock (i.e., 150 nM) is prepared by diluting the commercial stock 1:30 in binding buffer). Control tubes are prepared which have radioligand but no membranes. The tubes are vortexed then spun briefly. The mixtures are incubated for 1 hour at 4°C. The mixtures are filtered through GF/C filters pre-soaked in polyethyleneimine (0.3% in MilliQ water). The tubes are washed with 2-3 ml of wash buffer and filtered. The filter is washed with 3 x 5 ml of wash buffer, and air dried. 4.5 ml of scintillant is added to the dried filter in a scintillation vial and the filter counted on a tritium channel.

[2] = test system: ovalbumin-induced pulmonary inflammation, IgE, IL-4 and recall responses; assay: Ovalbumin-induced asthma / hypersensitivity model; assay type: in vivo, mice; design: Total IgE (Serum), individual mice m1-m4 / Total IgE (Serum), Avg.: unit not given here; conditions: for ng/ml IgE (4X avg.): serum; for splenocyte recall response to OVA (in words): versus positive controls
Procedure: A third study assessed the efficacy of daily dosing with CRD-Leu4Ile11Cys13 peptide 3(3-12)[MCP-1] to reduce OVA-induced pulmonary inflammation. Mice were sensitized with 0.1 mg of ovalbumin or PBS (diluent control) intraperitoneally in the absence of the test agent. […] These treatments were given daily from day 8 through day 21. On day 8, thirty minutes following treatment, mice were challenged intratracheally with 1% ovalbumin or PBS. On days 15, 18, and 21, thirty minutes following treatment, mice were challenged intratracheally with 2% ovalbumin or PBS. Mice were sacrificed 3 hours post-ovalbumin challenge, on day 21. Lungs were collected for histopathology, and for isolation of cells for total cell counts and FACS analysis. Bronchalveolar lavage (BAL) was collected for eicosinoid levels. Serum was collected for IgE and IL-4 levels. Spleens were collected for cytokine recall responses. […]

[3] = Group 2: Ova on days 8, 15, 18, 21, treat 1 × day 21, sacrifice day 21, 0 µg/ml Ova
[4] = Group 4: Ova on days 8, 15, 18, 21 & 35, treat BID 14 days, sacrifice day 35 (recent Ova challenge), 0 µg/ml Ova
[5] = Group 5: Ova on days 8, 15, 18, 21, treat BID 14 days, sacrifice day 34 (No recent Ova challenge), 0 µg/ml Ova
[6] = Group 5: PBS on days 8, 15, 18, 21, treat BID 14 days, sacrifice day 34 (No recent Ova challenge), 0 µg/ml Ova

T1 sequence (P08908 whole entry): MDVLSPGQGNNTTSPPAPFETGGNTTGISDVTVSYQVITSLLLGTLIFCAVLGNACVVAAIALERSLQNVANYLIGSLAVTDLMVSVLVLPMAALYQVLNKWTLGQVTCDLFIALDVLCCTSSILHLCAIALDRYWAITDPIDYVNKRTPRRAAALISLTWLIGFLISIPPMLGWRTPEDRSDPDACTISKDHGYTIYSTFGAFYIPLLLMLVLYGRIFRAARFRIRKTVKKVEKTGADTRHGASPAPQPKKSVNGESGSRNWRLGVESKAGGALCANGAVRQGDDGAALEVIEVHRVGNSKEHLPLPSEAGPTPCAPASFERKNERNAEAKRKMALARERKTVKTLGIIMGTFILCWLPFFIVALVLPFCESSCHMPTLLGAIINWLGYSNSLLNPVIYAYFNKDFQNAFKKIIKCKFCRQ

## CC[C@@H](C)[C@H]1NC(=O)[C@@H](CCC(N)=O)NC(=O)[C@H](N)CSSC[C@H](C(N)=O)NC(=O)[C@@H](CC(C)C)NC(=O)[C@@H](CC(=O)O)NC(=O)[C@H]2CCCN2C(=O)[C@@H](CCCCN)NC(=O)[C@@H](CCC(N)=O)NC(=O)[C@@H](CCCCN)NC(=O)[C@@H](Cc2c[nH]c3ccccc23)NC1=O (H-[dC][dQ][dI][dW][dK][dQ][dK][dP][dD][dL][dC]-NH2; disulfide 1-11)
[1]
  ED50 for competition of 8-OH-DPAT binding to 5-HT1a receptors: >100 µM
[2]; Group 2
  Total IgE (Serum), Avg.: 1.505
  ng/ml IgE (4X avg.): 6.020 ng/mL
[2]; Group 2 (single treatment day 21)
  Total IgE (Serum), individual mice m1-m4: 1.952 and 1.132 and 2.073 and 0.863
[2]; [3]
  IL-4 Assays, pg/ml IL-4, Avg. of Group: 2.89 pg/mL
  IL-4 Assays, pg/ml IL-4, individual mice m1-m4: 2.81 pg/mL and 5.60 pg/mL and 0.25 pg/mL and 0.45 pg/mL
  Total IgM + IgG (1 week splenocyte cultures), Avg.: 57.45
  Total IgM + IgG (1 week splenocyte cultures), individual mice m1-m4: 108.00 and 24.97 and 40.65 and 56.17
[2]; Group 2, 0 µg/ml Ova
  Total IgE (1 week splenocyte cultures): 0.067 ng/mL
  Total IgE (1 week splenocyte cultures), Avg.: 0.017
  Total IgE (1 week splenocyte cultures), individual mice m1-m4: 0.000 and 0.051 and 0.007 and 0.009
[2]; Group 2, 5 µg/ml Ova
  IL-4 Assays, pg/ml IL-4, Avg. of Group: 5.86 pg/mL
  IL-4 Assays, pg/ml IL-4, individual mice m1-m4: 3.18 pg/mL and 8.55 pg/mL
  Total IgE (1 week splenocyte cultures): 0.128 ng/mL
  Total IgE (1 week splenocyte cultures), Avg.: 0.032
  Total IgE (1 week splenocyte cultures), individual mice m1-m4: 0.041 and 0.023
  Total IgM + IgG (1 week splenocyte cultures), Avg.: 150.46
  Total IgM + IgG (1 week splenocyte cultures), individual mice m1-m4: 254.36 and 46.56
[2]; Group 2, 50 µg/ml Ova
  IL-4 Assays, pg/ml IL-4, Avg. of Group: 12.57 pg/mL
  IL-4 Assays, pg/ml IL-4, individual mice m1-m4: 7.10 pg/mL and 11.46 pg/mL and 19.15 pg/mL and 75.36 pg/mL
  Total IgE (1 week splenocyte cultures): 0.024 ng/mL
  Total IgE (1 week splenocyte cultures), Avg.: 0.006
  Total IgE (1 week splenocyte cultures), individual mice m1-m4: 0.011 and 0.002 and 0.004 and 0.007
  Total IgM + IgG (1 week splenocyte cultures), Avg.: 241.75
  Total IgM + IgG (1 week splenocyte cultures), individual mice m1-m4: 137.57 and 176.41 and 331.79 and 321.23
[2]; Group 4
  Total IgE (Serum), Avg.: 0.621
  ng/ml IgE (4X avg.): 2.482 ng/mL
[2]; Group 4 (recent Ova challenge), 0 µg/ml Ova, listed as CRD-Leu4Ile11Cys13peptide 3(3-12)[MCP-1]
  Total IgE (1 week splenocyte cultures), individual mice m1-m4: 0.008 and 0.001 and 0.015 and 0.002
[2]; Group 4 (treated 14 days, recent Ova challenge)
  Total IgE (Serum), individual mice m1-m4: 0.310 and 0.298 and 0.984 and 0.890
[2]; [4]
  IL-4 Assays, pg/ml IL-4, Avg. of Group: 2.92 pg/mL
  Total IgM + IgG (1 week splenocyte cultures), Avg.: 17.16
[2]; Group 4, 0 µg/ml Ova
  Total IgE (1 week splenocyte cultures): 0.026 ng/mL
  Total IgE (1 week splenocyte cultures), Avg.: 0.007
[2]; Group 4, 5 µg/ml Ova
  IL-4 Assays, pg/ml IL-4, Avg. of Group: 8.05 pg/mL
  IL-4 Assays, pg/ml IL-4, individual mice m1-m4: 10.40 pg/mL and 12.77 pg/mL and 4.59 pg/mL and 4.45 pg/mL
  Total IgE (1 week splenocyte cultures): 0.096 ng/mL
  Total IgE (1 week splenocyte cultures), Avg.: 0.024
  Total IgM + IgG (1 week splenocyte cultures), Avg.: 163.95
[2]; Group 4, 5 µg/ml Ova, listed as CRD-Leu4Ile11Cys13peptide 3(3-12)[MCP-1]
  Total IgE (1 week splenocyte cultures), individual mice m1-m4: 0.009 (2×) and 0.047 and 0.031
[2]; Group 4, 5 µg/ml Ova, listed as CRD-Leu4Ile11Cys13 peptide 3(3-12)[MCP]
  Total IgM + IgG (1 week splenocyte cultures), individual mice m1-m4: 189.07 and 249.75 and 148.16 and 68.83
[2]; Group 4, 50 µg/ml Ova
  IL-4 Assays, pg/ml IL-4, Avg. of Group: 14.45 pg/mL
  IL-4 Assays, pg/ml IL-4, individual mice m1-m4: 14.38 pg/mL and 22.08 pg/mL and 10.25 pg/mL and 11.09 pg/mL
  Total IgE (1 week splenocyte cultures): 0.082 ng/mL
  Total IgE (1 week splenocyte cultures), Avg.: 0.021
  Total IgM + IgG (1 week splenocyte cultures), Avg.: 416.86
[2]; Group 4, 50 µg/ml Ova, listed as CRD-Leu4Ile11Cys13peptide 3(3-12)[MCP-1]
  Total IgE (1 week splenocyte cultures), individual mice m1-m4: 0.013 and 0.043 and 0.008 and 0.018
[2]; Group 4, 50 µg/ml Ova, listed as CRD-Leu4Ile11Cys13 peptide 3(3-12)[MCP]
  Total IgM + IgG (1 week splenocyte cultures), individual mice m1-m4: 338.50 and 679.86 and 487.87 and 161.20
[2]; Group 5
  Total IgE (Serum), Avg.: 1.102
  ng/ml IgE (4X avg.): 4.406 ng/mL
[2]; Group 5 (No recent Ova challenge), 0 µg/ml Ova
  Total IgE (1 week splenocyte cultures), individual mice m1-m4: 0.008 and 0.033 and 0.000 and 0.024
[2]; Group 5 (treated 14 days, no recent Ova challenge)
  Total IgE (Serum), individual mice m1-m4: 0.625 and 1.870 and 0.838 and 1.073
[2]; [5]
  IL-4 Assays, pg/ml IL-4, Avg. of Group: 8.05 pg/mL
  IL-4 Assays, pg/ml IL-4, individual mice m1-m4: 9.09 pg/mL and 3.80 pg/mL and 12.89 pg/mL and 6.42 pg/mL
[2]; [6]
  Total IgM + IgG (1 week splenocyte cultures), Avg.: 20.05
  Total IgM + IgG (1 week splenocyte cultures), individual mice m1-m4: 26.54 and 15.44 and 21.35 and 16.89
[2]; Group 5, 0 µg/ml Ova
  Total IgE (1 week splenocyte cultures): 0.065 ng/mL
  Total IgE (1 week splenocyte cultures), Avg.: 0.016
[2]; Group 5, 5 µg/ml Ova
  IL-4 Assays, pg/ml IL-4, Avg. of Group: 6.33 pg/mL
  IL-4 Assays, pg/ml IL-4, individual mice m1-m4: 5.70 pg/mL and 4.43 pg/mL and 10.09 pg/mL and 5.10 pg/mL
  Total IgE (1 week splenocyte cultures): 0.082 ng/mL
  Total IgE (1 week splenocyte cultures), Avg.: 0.021
  Total IgE (1 week splenocyte cultures), individual mice m1-m4: 0.003 and 0.065 and 0.000 and 0.014
  Total IgM + IgG (1 week splenocyte cultures), Avg.: 53.22
  Total IgM + IgG (1 week splenocyte cultures), individual mice m1-m4: 64.20 and 31.21 and 67.94 and 49.53
[2]; Group 5, 50 µg/ml Ova
  IL-4 Assays, pg/ml IL-4, Avg. of Group: 5.61 pg/mL
  IL-4 Assays, pg/ml IL-4, individual mice m1-m4: 7.02 pg/mL and 6.10 pg/mL and 4.74 pg/mL and 4.59 pg/mL
  Total IgE (1 week splenocyte cultures): 0.021 ng/mL
  Total IgE (1 week splenocyte cultures), Avg.: 0.005
  Total IgE (1 week splenocyte cultures), individual mice m1-m4: 0.000 (2×) and 0.020 and 0.001
  Total IgM + IgG (1 week splenocyte cultures), Avg.: 111.41
  Total IgM + IgG (1 week splenocyte cultures), individual mice m1-m4: 86.16 and 80.04 and 189.70 and 89.74
[2]; first study, high dose
  inflammatory infiltrates in the lung, histology (in words): minimal to no inflammatory infiltrates
[2]; second study, dose-dependent
  reduction in IL-4: 85%
  reduction in macrophages: 74%
  reduction in total cells in the lung: approximately 50%
[2]; second study, s.c. 10.3 µg-1.03 mg before OVA challenges, dose-dependent
  reduction in IgE: 60%
[2]; versus PBS + OVA positive controls, study and dose as in the block
  cells in the lungs, total counts / FACS (in words): significantly lower numbers of CD3, CD4, B220, and Mac-1 cells; also recorded: significantly lower percentages of macrophages; also recorded: significantly lower numbers of macrophages, B cells, and CD4+ T cells; also recorded: no significant reduction of total cells in the lungs
[2]; versus PBS + OVA positive controls, study as in the block
  IgE levels (in words): not detectable above background; also recorded: significantly lower; also recorded: significantly reduced; also recorded: reduced levels of serum IgE
[2]; study as in the block
  splenocyte recall response to OVA (in words): reduced levels of IL-4, IgE, and total IgG and IgM
[2]; study as in the block, listed as CRD-Leu4Ile11Cys13peptide 3(3-12)[MCP-1]
  splenocyte recall response to OVA (in words): significantly less IL-4
